Data: article PMC10770036, “Novel dual inhibitors of PARP and HDAC induce intratumoral STING-mediated antitumor immunity in triple-negative breast cancer” (Cell Death & Disease, 2024)

Experiments:
TNBC cells = experiment: Transwell migration assay; type: cell-based, human; conditions: 48 h, compared with the vehicle
Experimental: Cell migration and invasion assays were performed using Transwell chambers with 8 μm pores without Matrigel (for migration assay) or with Matrigel (for invasion assay).
Cell migration and invasion assays were performed using Transwell chambers with 8 μm pores (Corning) without Matrigel (for migration assay) or with Matrigel (for invasion assay). MDA-MB-436 and MDA-MB-231 cells were resuspended in serum-free Leibovitz’s L-15 medium and seeded in the upper chamber at a density of 12,000 cells/100 μL. The chambers were incubated in 24-well plates containing Leibovitz’s L-15 medium with 10% FBS and PARP/HDACi or DMSO. After 48 h, the cells were fixed with 4% paraformaldehyde and stained with crystal violet. The cells on the upper surface of the filters were removed by swabbing with a cotton swab, and the images were captured at 5× magnification under an inverted phase contrast microscope (Leica Microsystems).

[1] = Body weight of tumor-bearing mice; type: in vivo
From the text: MDA-MB-436, MDA-MB-231, and 4T1 cells were orthotopically injected into the fat pads of 6- to 7-week-old female NOD-Prkdc^scid Il2rg^em1Smoc (M-NSG), BALB/c nude and BALB/c mice, respectively. Fourteen 6-week-old female MMTV-PyMT mice were divided into two groups. The […] in each group were littermates. All animal procedures were approved by the Institutional Animal Care and Use Committee at Shenzhen University.
MDA-MB-436 cells (5 × 10^6) were suspended in PBS and Matrigel (Corning) at a 1:1 ratio and orthotopically injected into the fat pads of 6- to 7-week-old female NOD-Prkdc^scid Il2rg^em1Smoc (M-NSG) mice from the Shanghai Model Organisms Center, Inc. MDA-MB-231 cells (5 × 10^6) were suspended in PBS orthotopically injected into the fat pads of 6- to 7-week-old female BALB/c nude mice from the Shanghai Model Organisms Center, Inc. 4T1 cells (1 × 10^6) were suspended in PBS and injected into the fat pads of 6- to 7-week-old […] BALB/c mice from GemPharmatech Co., Ltd. When the tumor size reached 100 mm^3, the mice were randomly divided into three treatment groups without blinding: B102 (15 mg/kg), B302 (50 mg/kg) or vehicle [10% N,N-dimethylacetamide (DMAC, Sangon Biotech) and 6% polyethylene glycol 12-hydroxystearate (Solutol HS-15, MedChem Express, Monmouth Junction, NJ, USA) in saline] treatment via an intraperitoneal injection once daily. […]

PARP1 = target: T1, PARP1 (Homo sapiens, UniProt P09874); experiment: PARP1 enzymatic inhibition assay (PARP1 Colorimetric Assay Kit); type: biochemical
T1 construct: purchased BPS Bioscience 80580
T1 sequence (P09874 whole entry): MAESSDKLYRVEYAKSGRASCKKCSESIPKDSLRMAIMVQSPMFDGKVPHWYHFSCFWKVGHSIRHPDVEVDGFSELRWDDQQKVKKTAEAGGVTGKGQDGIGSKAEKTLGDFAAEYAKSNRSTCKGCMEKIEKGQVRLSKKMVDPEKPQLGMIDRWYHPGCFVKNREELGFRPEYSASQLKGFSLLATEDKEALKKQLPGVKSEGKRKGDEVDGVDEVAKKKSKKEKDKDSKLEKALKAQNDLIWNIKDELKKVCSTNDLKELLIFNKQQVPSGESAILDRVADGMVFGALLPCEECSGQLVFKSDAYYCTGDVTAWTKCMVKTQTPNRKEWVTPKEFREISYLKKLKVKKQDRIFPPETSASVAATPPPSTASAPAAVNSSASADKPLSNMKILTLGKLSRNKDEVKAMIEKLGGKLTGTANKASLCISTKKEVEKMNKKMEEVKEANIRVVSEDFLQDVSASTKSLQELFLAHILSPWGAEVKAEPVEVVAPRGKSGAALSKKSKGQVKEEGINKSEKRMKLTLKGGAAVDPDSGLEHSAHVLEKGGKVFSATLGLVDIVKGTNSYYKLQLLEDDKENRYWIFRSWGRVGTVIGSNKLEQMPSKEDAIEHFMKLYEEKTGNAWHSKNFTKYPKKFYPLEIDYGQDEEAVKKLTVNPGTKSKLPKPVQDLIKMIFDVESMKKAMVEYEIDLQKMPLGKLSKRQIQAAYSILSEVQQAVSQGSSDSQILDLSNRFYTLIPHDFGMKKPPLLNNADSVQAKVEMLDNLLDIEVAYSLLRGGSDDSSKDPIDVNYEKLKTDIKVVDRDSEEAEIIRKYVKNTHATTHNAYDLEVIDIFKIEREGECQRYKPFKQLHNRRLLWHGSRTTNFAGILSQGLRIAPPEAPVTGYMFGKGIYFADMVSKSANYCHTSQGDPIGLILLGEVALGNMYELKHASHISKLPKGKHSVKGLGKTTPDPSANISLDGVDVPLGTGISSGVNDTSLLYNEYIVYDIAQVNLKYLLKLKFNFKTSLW
Experimental: Briefly, the 1× histone mixture was added to each well and incubated overnight at 4 °C. Each well was washed three times with 200 µL 1× TBST buffer and filled with 200 µL Blocking buffer at room temperature for 90 min. Then, each well was filled with 25 µL of PARP master mixture (5 μL activated DNA + 2.5 μL 10× PARP Assay mixture + 2.5 μL 10× PARP buffer + 15 μL distilled water). Next, 5 µL of the compound of different concentrations was added to each well, and PARP enzyme was added and incubated at room temperature for 1 h. Next, streptavidin HRP solution was added and incubated at room temperature for 30 min. After adding 100 µL of colorimetric HRP substrate to each well, the plate was incubated until a blue color developed in the positive well, which contained PARP enzyme without inhibitors. The reaction was then quenched with 2 M sulfuric acid, and absorbance at 450 nm was measured using a microplate reader (BioTek, Winooski, VT, USA). After calculating the inhibition rate, the IC50 value was determined.

p-H2A.X = experiment: Western blot of H2A.X phosphorylation (DNA damage) in TNBC cells; type: cell-based, human; conditions: TNBC cell lines, 48 h
Experimental: Western blot analysis was performed as previously described, and all western blot analyses were performed at least three times.
Western blot analysis was performed as previously described. Briefly, whole cell or tissue lysates were prepared using ice-cold Nonidet P-40 buffer mixed with protease and phosphatase inhibitors (Roche, IN, USA) and centrifuged at 14,000 × g at 4 °C for 10 min. The protein lysates were fractionated by sodium dodecyl sulfate–polyacrylamide gel electrophoresis (SDS–PAGE) and transferred to polyvinylidene fluoride (PVDF) membranes (Merck, Darmstadt, Germany). Membranes were incubated in 1× TBST buffer containing 5% nonfat powdered milk at room temperature for 2 h. The indicated primary antibody was incubated with PVDF membranes, followed by a washing step using 1× TBST and a secondary antibody conjugated to HRP. Signal detection was carried out using the Western ECL Substrate kit (Bio-Rad, Hercules, CA, USA). […]

IC50 (PARP1) [nM]	Structure (SMILES)	migration of TNBC cells (TNBC cells)	body weights of tumor-bearing mice ([1]; 15 mg/kg/d)	p-H2A.X levels (DNA DSBs) (p-H2A.X)	body weights of tumor-bearing mice ([1]; 50 mg/kg/d)
19	Nc1cc(F)ccc1NC(=O)/C=C/c1ccc(CN2CCN(C(=O)c3cc(Cc4n[nH]c(=O)c5ccccc45)ccc3F)CC2)cc1 [Compound B102]	considerably inhibited the migration	not obviously altered	increased p-H2A.X (S136) levels	
12.7	Nc1cc(F)ccc1NC(=O)CCc1ccc(CN2CCN(C(=O)c3cc(Cc4n[nH]c(=O)c5ccccc45)ccc3F)CC2)cc1 [Compound B302]	considerably inhibited the migration		increased p-H2A.X (S136) levels	not obviously altered
